Our source for the melting point and IC50 values is patent US6809119B2, “Branched chain amino acid-dependent aminotransferase inhibitors and their use in the treatment of neurodegenerative diseases” (Warner-Lambert Company LLC, priority 2001, dated 2004).

Usually melting point stands for the temperature of the solid-liquid transition.

For data set [1], the target named is T1, human Branched Chain Amino Acid Aminotransferase cytosolic form (hBCATc) (Homo sapiens, UniProt P54687).
T1 construct: inferred from purification on a Ni-charged chelating column with imidazole elution; made in house; host or cells: E. coli BL21(DE3)
T1 sequence (P54687 1-386): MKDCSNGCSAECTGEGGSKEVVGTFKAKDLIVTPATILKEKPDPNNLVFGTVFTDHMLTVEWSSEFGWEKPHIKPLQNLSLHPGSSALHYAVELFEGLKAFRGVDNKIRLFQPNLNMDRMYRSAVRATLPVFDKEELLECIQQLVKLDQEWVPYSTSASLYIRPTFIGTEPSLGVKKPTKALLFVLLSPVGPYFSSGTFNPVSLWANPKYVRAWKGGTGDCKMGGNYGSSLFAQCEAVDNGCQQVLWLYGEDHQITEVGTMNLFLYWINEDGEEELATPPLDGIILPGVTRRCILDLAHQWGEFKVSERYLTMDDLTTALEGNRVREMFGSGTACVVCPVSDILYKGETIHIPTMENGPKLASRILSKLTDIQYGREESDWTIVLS
Nature of the data set: In vitro coupled enzyme assay, human BCAT cytosolic form. The data set is classed as biochemical. The note with it: inhibition of recombinant human BCATc; coupled glutamate dehydrogenase/NADH assay, 37° C., pH 7.8; read-out: rhBCATc. The protocol:
(§1) In vitro enzyme assay: human Branched Chain Amino Acid Aminotransferase cytosolic form (hBCATc) and mitochondrial form (hBCATm) as well as rat BCAT cytosolic form were assayed at 37° C. in 25 mM phosphate buffer pH 7.8. In addition, 2 mM DTT and 12.5 mM EDTA were added to the assay mixture. A coupling enzyme assay was used to monitor the production of glutamate. The formation of NADH from NAD+at […] was followed on a 96-well plate Molecular Devices plate reader. The following components were used in this coupled assay: 4 mM ADP, 1 mM NAD+, 750 μM L-Leucine, 500 μM a-ketoglutarate, 10 μM pyridoxal phosphate, 1 unit glutamate dehydrogenase, and 1.25 μg of the appropriate BCAT enzyme. Inhibitions by compounds were assayed by adding various concentrations to this coupled assay procedure as a DMSO stock up to a 5% v/v DMSO/buffer ratio.
(§2) Enzyme Preparation: humanBCATc and ratBCATc were expressed in BL21(DE3) cells. A growing culture of cells was induced with 1 mM IPTG at room temperature overnight. These cells were harvested by centrifugation at 10,000 g for 20 minutes. The supernatant was discarded, and the cells were stored at −80° C. until needed. The protein was purified by the following method. The cell paste was resuspended in extraction buffer (0.1 M phosphate, pH 8.0, with 0.01 M Tris-HCL and 5 mM TCEP and then lysed on a French Press at 1000 psi. The lysate was centrifuged at 10,000 g for 15 minutes, and the pellet was discarded. The supernatant was loaded onto a Hitrap Chelating column previously charged with 0.1 M NiSO4 and washed with 3 to 4 column volumes of extraction buffer. The column was then washed with 0.01 Tris, pH 7.5, 10% glycerol, 150 mM NaCl, 5 mM TCEP for two column volumes. The column was then further washed with two column volumes of 0.1 M phosphate, pH 6.0, 0.01 M Tris, 10% glycerol, and 750 mM NaCl. Finally, the column was washed with two column volumes of the same buffer plus 50 mM imidazole. The BCAT enzyme was then eluted with the same buffer but with 350 mM imidazole. The eluant was then dialyzed overnight against 10 mM phosphate buffer pH 8.0, 10% glycerol, and 5 mM TCEP. The dialyzed protein was then loaded onto a Q-sepharose column and eluted using a salt gradient. Active fractions were collected and further purified on a Superose-12 column to yield pure BCAT protein.

Data set [2] has as its target T2, rat BCAT cytosolic form (rrBCATc) (Rattus norvegicus, UniProt P54690).
T2 construct: inferred from purification on a Ni-charged chelating column with imidazole elution; made in house; host or cells: E. coli BL21(DE3)
T2 sequence (P54690 1-411): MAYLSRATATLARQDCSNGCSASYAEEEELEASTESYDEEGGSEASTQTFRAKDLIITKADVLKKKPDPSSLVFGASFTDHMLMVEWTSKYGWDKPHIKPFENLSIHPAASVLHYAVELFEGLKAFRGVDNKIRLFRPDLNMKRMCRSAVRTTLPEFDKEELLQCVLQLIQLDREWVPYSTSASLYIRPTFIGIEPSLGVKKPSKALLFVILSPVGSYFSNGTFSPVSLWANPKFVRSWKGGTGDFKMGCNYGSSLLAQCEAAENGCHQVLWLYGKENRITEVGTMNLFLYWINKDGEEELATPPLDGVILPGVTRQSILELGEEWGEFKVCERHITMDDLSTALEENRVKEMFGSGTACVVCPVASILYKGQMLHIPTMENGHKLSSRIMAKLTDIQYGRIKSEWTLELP
The data set can be described thus: In vitro coupled enzyme assay, rat BCAT cytosolic form. The data set is classed as biochemical. The note with it: inhibition of recombinant rat BCATc; coupled glutamate dehydrogenase/NADH assay, 37° C., pH 7.8. The protocol: as §1, §2

`Cc1cccc(S(=O)(=O)Nc2ccc(C(=O)NNS(=O)(=O)c3ccccc3)cc2)c1` (hydrate or solvate) [Example 17, Benzoic acid, 4-[[(3-methylphenyl)sulfonyl]amino]-, 2-(phenylsulfonyl)hydrazide] yielded a melting point of 219 to 219.7 °C. In turn, `O=C(NNS(=O)(=O)c1ccccc1)c1ccc([N+](=O)[O-])cc1` [Example 1, Benzoic acid, 4-nitro-2-(phenylsulfonyl)hydrazide] came in with a melting point of 193 to 195 °C. Further, the IC50 in data set [1] was 40 µM. On the same counts, the results for `O=C(NNS(=O)(=O)c1ccccc1)c1ccc(NS(=O)(=O)c2c(Cl)cc(Cl)cc2Cl)cc1` [Example 3, Benzoic acid, 4-[[(2,4,6trichlorophenyl)sulfonyl]amino]-, 2-(phenylsulfonyl)hydrazide] are 195.7 to 196.2 °C and 0.7 µM. Compound `O=C(NNS(=O)(=O)c1ccccc1)c1ccc(NS(=O)(=O)c2ccc(C(F)(F)F)cc2)cc1` [Example 4, Benzoic acid, 4-[[[4-(trifluoromethyl)phenyl]sulfonyl]amino]-, 2-(phenylsulfonyl)hydrazide] returned a melting point of 98.5 to 99.4 °C. The IC50 in data set [1] is 6 µM.

The compound `O=C(NNS(=O)(=O)c1ccccc1)c1ccc(NS(=O)(=O)c2ccc(Oc3ccccc3)cc2)cc1` [Example 6, Benzoic acid, 4-[[[(4-phenoxy)benzene]sulfonyl]amino]-, 2-(phenylsulfonyl)hydrazide] returned a melting point of 94.1 to 94.9 °C. Moreover, in data set [1], the IC50 is 3 µM. The compound `Cc1cccc(Cl)c1S(=O)(=O)Nc1ccc(C(=O)NNS(=O)(=O)c2ccccc2)cc1` [Example 7, Benzoic acid, 4-[[(2-chloro-6-methylphenyl)sulfonyl]amino]-, 2-(phenylsulfonyl)hydrazide] came in with a melting point of 214.4 to 215.6 °C. In turn, `CS(=O)(=O)Nc1ccc(C(=O)NNS(=O)(=O)c2ccccc2)cc1` [Example 8, Benzoic acid, 4-[(methylsulfonyl)amino]-, 2-(phenylsulfonyl)hydrazide] registered a melting point of 185.6 to 186.5 °C. Moreover, in data set [1], the IC50 came out at 7 µM. On the same counts, the results for `Cc1ccc(S(=O)(=O)Nc2ccc(C(=O)NNS(=O)(=O)c3ccccc3)cc2)cc1` [Example 9, Benzoic acid, 4-[[(4-methylphenyl)sulfonyl]amino]-, 2-(phenylsulfonyl)hydrazide] are 191.6 to 192.4 °C and 3.8 µM. On the same counts, the results for `CCc1ccc(S(=O)(=O)Nc2ccc(C(=O)NNS(=O)(=O)c3ccccc3)cc2)cc1` [Example 10, Benzoic acid, 4-[[(4-ethylphenyl)sulfonyl]amino]-, 2-(phenylsulfonyl)hydrazide] are 142.3 to 142.9 °C and 13 µM.

With `CCCc1ccc(S(=O)(=O)Nc2ccc(C(=O)NNS(=O)(=O)c3ccccc3)cc2)cc1` [Example 11, Benzoic acid, 4-[[(4-n-propylphenyl)sulfonyl]amino]-, 2-(phenylsulfonyl)hydrazide], the IC50 in data set [1] came to 7.5 µM. The compound `CCCCc1ccc(S(=O)(=O)Nc2ccc(C(=O)NNS(=O)(=O)c3ccccc3)cc2)cc1` [Example 12, Benzoic acid, 4-[[(4-n-butylphenyl)sulfonyl]amino]-, 2-(phenylsulfonyl)hydrazide] gave a melting point of 76 to 77.1 °C. Also, the IC50 in data set [1] amounted to 4.6 µM. On the same counts, the results for `O=C(NNS(=O)(=O)c1ccccc1)c1ccc(NS(=O)(=O)c2ccc(F)cc2)cc1` [Example 14, Benzoic acid, 4-[[(4-fluorophenyl)sulfonyl]amino]-, 2-(phenylsulfonyl)hydrazide] are 183.5 to 185 °C and 4.8 µM.

`O=C(NNS(=O)(=O)c1ccccc1)c1ccc(NS(=O)(=O)c2ccccc2)cc1` [Example 15] displayed a melting point of 140.8 to 144.5 °C. Besides, the IC50 in data set [1] worked out at 4.9 µM. As for `Cc1cccc(S(=O)(=O)Nc2ccc(C(=O)NNS(=O)(=O)c3ccccc3)cc2)c1` [Example 17, Benzoic acid, 4-[[(3-methylphenyl)sulfonyl]amino]-, 2-(phenylsulfonyl)hydrazide], the IC50 in data set [1] was 2.3 µM.

As to `Cc1cccc(S(=O)(=O)NNC(=O)c2ccc(Oc3ccccc3)cc2)c1` [Example 18, 4-Phenoxybenzoic acid, 2-[(3-methyl)phenylsulfonyl]hydrazide], the IC50 worked out at 1.2 µM in data set [2] and 9.5 µM in data set [1]. Consider `O=C(NNS(=O)(=O)c1cccc(Br)c1)c1ccc(Oc2ccccc2)cc1` [Example 19, 4-Phenoxybenzoic acid, 2-[3-bromophenylsulfonyl]hydrazide], for which the IC50 in data set [2] was determined as 2.8 µM; in data set [1] it was 28 µM. For `O=C(NNS(=O)(=O)c1ccccc1Cl)c1ccc(Oc2ccccc2)cc1` [Example 20, 4-Phenoxybenzoic acid, 2-[2-chlorophenylsulfonyl]hydrazide], the IC50 came to 5.9 µM in data set [2] and 35 µM in data set [1]. On the same counts, the results for `O=C(NNS(=O)(=O)c1ccccc1OC(F)(F)F)c1ccc(Oc2ccccc2)cc1` [Example 21, 4-Phenoxybenzoic acid, 2-[2-(trifluoromethoxy)phenylsulfonyl]hydrazide] are 2.9 µM and 28 µM. With `Cc1ccc(S(=O)(=O)NNC(=O)c2ccc(Oc3ccccc3)cc2)cc1[N+](=O)[O-]` [Example 22, 4-Phenoxybenzoic acid, 2-[(4-methyl-3-nitro)phenylsulfonyl]hydrazide], in data set [1], the IC50 turned out to be 110 µM. As to `O=C(NNS(=O)(=O)c1ccccc1C(F)(F)F)c1ccc(Oc2ccccc2)cc1` [Example 23, 4-Phenoxybenzoic acid, 2-[2-trifluorophenylsulfonyl]hydrazide], the IC50 in data set [2] amounted to 0.43 µM; in data set [1], 17 µM. As for `O=C(NNS(=O)(=O)c1ccccc1)c1cccc(Oc2ccccc2)c1` [Example 26, 3-Phenoxybenzoic acid, 2-(phenylsulfonyl)hydrazide], the IC50 is 2.2 µM in data set [2] and 34 µM in data set [1]. On to `O=C(NNS(=O)(=O)c1ccccc1)c1ccccc1Oc1ccccc1` [Example 27, 2-Phenoxybenzoic acid, 2-(phenylsulfonyl)hydrazide], for which the melting point is 149 to 150 °C. For the same compound, the IC50 in data set [1] turned out to be 50 µM. Take `COc1ccc(S(=O)(=O)Nc2ccc(C(=O)NNS(=O)(=O)c3ccccc3)cc2)cc1` [Example 30, Benzoic acid, 4-[[(4-methoxyphenyl)sulfonyl]amino]-, 2-(phenylsulfonyl)hydrazide]: the melting point lay in the range of 164.3 to 164.9 °C. The IC50 in data set [1] amounted to 2.8 µM. `O=C(NNS(=O)(=O)c1ccccc1)c1ccc(I)cc1` [Example 31, 4-Iodo-benzoic acid, 2-(phenylsulfonyl)hydrazide] had a melting point of 193 to 195 °C. Compound `O=C(NNS(=O)(=O)c1ccccc1)c1ccc(C#CCC2CCCCC2)cc1` [Example 34, 4-(3-Cyclohexyl-1-propynyl)-benzoic acid, 2-(phenylsulfonyl)hydrazide] returned a melting point of 180 to 182 °C. Further, the IC50 in data set [1] worked out at 32.3 µM.
